{"source": "paper PMC7355430", "about": "“Imunofan—RDKVYR Peptide—Stimulates Skin Cell Proliferation and Promotes Tissue Repair” (Molecules, 2020)", "key": {"ASCs from donor 6": {"tested_on": "ASCs from donor 6", "assay": "RNA sequencing with ingenuity pathway analysis (IPA)", "assay_type": "cell-based, human", "conditions": "ASCs donor 6, 0.1 µg/mL IM", "protocol": "Cell stimulation was performed as previously described. Primary fibroblasts after the third passage and ASCs after the second passage were cultured in appropriate DMEM medium supplemented with 10% FBS for 24 h. Then, the medium was changed for DMEM with 5% FBS and 24-h incubation was performed. After another medium change for serum-free, cells were stimulated with IM peptide (0.1 µg/mL) for 48 h. Cell cultures deprived of FBS for 48 h were used as a control. After stimulation, the cells were trypsinized, collected, and centrifuged, and the pellet was kept frozen (−80 °C) for transcriptome analysis and transcript level analysis.\nFor three plastic surgery donors (donor 6, donor 11, and donor 12) ASCs (3–4.5 × 10^5 cells) after passage P2, namely cultures stimulated for 48 h with 0.1 µg/mL IM, or control cultured with FBS-deprived medium, were trypsinized, washed, and snap frozen for transcriptome analysis (see Supplementary Table S5 for clinical information). The pellets were stored at −80 °C prior to RNA isolation. RNA was isolated using a miRNeasy Mini Kit (Qiagen, Hilden, Germany) with two modifications of the original protocol: (i) chloroform was substituted with 1-bromo-3-chloropropane to prevent foaming and emulsification, and (ii) the elution was done with 40 µl of water followed by another elution with the entire volume of the original eluate. The quality and concentration of RNA was assessed using a Bioanalyzer 2100 Instrument and RNA 6000 Nano Kit (Agilent, Waldbronn, Germany). The average RNA yield was 2 µg. Samples with RIN (RNA Integrity Number) >8.0 were used for further transcriptome analysis.\nA ribosome reduction kit (Arraystar Inc, Rockville, MD, USA) and SureSelect Strand Specific mRNA library kit (Agilent, Santa Clara, CA, USA) were used for next generation sequencing (NGS) library preparation according to standard procedures. The cDNA libraries were quantitated using qPCR in a Roche LightCycler 480 with the Kapa Library Quantification Kit for Illumina platforms (Kapa Biosystems, Woburn, MA, USA). Onboard cluster generation and 50 nt paired end RNA sequencing were performed on an Illumina HiSeq2500 device using Rapid Run v2 sequencing chemistry and flow cells as recommended by the manufacturer (Illumina Inc., San Diego, CA, USA). Paired end 50 bp sequencing runs were completed and the data was converted to the FASTQ Sanger format. Trim Galore was used to remove residual adapter sequences from the reads (https://www.bioinformatics.babraham.ac.uk). Sequencing reads were aligned to the human reference genome assembly (hg19) using TopHat. Further analysis was performed according to workflow for Cufflinks version 2.2.0 and higher. Transcript assembly and estimation of the relative abundances were carried out with Cufflinks using the following settings: Quartile normalization method for the libraries, blind dispersion method for replicates, and biased correction using canonical hg19 as reference. Cuffmerge and Cuffquant were then performed, followed by final comparison analysis in Cuffdiff. […] Differentially expressed genes (DGE) were grouped in functional pathways using ingenuity pathway analysis (IPA Spring Release 2017, QIAGEN, Hilde, Germany) on a gene level, using RefSeq annotation."}, "C57BL/6 mice": {"tested_on": "C57BL/6 mice", "assay": "Ear pinna injury, ear punch closure", "assay_type": "in vivo, mouse", "protocol": "Experiments were performed on 8–12 week-old female BALB/c (24 mice in total) and C57BL/6 mice (36 mice in total). All mice originated from the Centre for Experimental Medicine of the Medical University of Białystok, Poland, and were kept in the animal facility at the Nencki Institute of Experimental Biology throughout the course of the study. After delivery to the Nencki Institute animal facility, mice rested for at least two weeks for acclimatization before starting the experiment. Experiments were approved by the First Local Ethics Committee in Warsaw (permit No. 491/2013 and 542/2018). Animal experimentation was performed in accordance with EU directive 2010/63/EU, and all experiments were undertaken in such a way as to minimize discomfort and the number of animals used in the study.\nMice were placed individually in separate cages, weighed, and randomly divided into two groups within each mouse strain: The treatment group and the control group. Before the study all mice were randomly given numerical equivalents, and all experimenters performing further analysis were not aware of the experimental group and referred solely to those numbers. Similarly, vials containing IM (treatment) or saline (control) were encrypted and assigned to particular mice, so the person performing injections and ear photographs was not aware of mice background. Lastly, the person quantifying each ear hole closure was not aware of the group. Numerical equivalents of each mice were only decrypted at the end of the study. […]\nTo monitor the progress of wound healing, ears were photographed on the day of the injury (day 0, before and right after pinna injury), and on days 7, 14, 21, 28, 35, and 42. […] Finally, the area of the wound hole was outlined by hand on digitized images as an overlay, and the hole areas in the ears were evaluated using computer-assisted image analysis (ImageJ Software). […] The final number of analyzed ears was 23 per group on day 42. […] The final number of analyzed ears on day 42 was 32 in the control group and 16 in the treatment group."}, "[1]": {"conditions": "48 h vs FBS-deprived medium, IPA disease and function mode"}}, "note": "Where “and” joins values, the source holds several entries; their conditions need not be identical. Equal entries are not always repeated. Peptide text beside a SMILES is read from it."}
{"compound": "CC(C)[C@H](NC(=O)[C@H](CCCCN)NC(=O)[C@H](CC(=O)O)NC(=O)[C@@H](N)CCCNC(=N)N)C(=O)N[C@@H](Cc1ccc(O)cc1)C(=O)N[C@@H](CCCNC(=N)N)C(=O)O", "note": "[IM, H-Arg-Asp-Lys-Val-Tyr-Arg-OH] (H-RDKVYR-OH)", "values": [{"measurement": "consistency score of the IPA regulatory network", "setting": "ASCs from donor 6; 48 h, highest consistency score (Figure S10A)", "value": 29.69}, {"measurement": "Predicted Direction of Change: Activation of cells", "setting": "ASCs from donor 6; [1]", "value": "Activation"}, {"measurement": "Predicted Direction of Change: Binding of neutrophils", "setting": "ASCs from donor 6; [1]", "value": "Activation"}, {"measurement": "Predicted Direction of Change: Cell migration of granulocytes", "setting": "ASCs from donor 6; [1]", "value": "Activation"}, {"measurement": "Predicted Direction of Change: Cell migration of neutrophils", "setting": "ASCs from donor 6; [1]", "value": "Activation"}, {"measurement": "Predicted Direction of Change: Cell movements", "setting": "ASCs from donor 6; [1]", "value": "Activation"}, {"measurement": "Predicted Direction of Change: Chemotaxis", "setting": "ASCs from donor 6; [1]", "value": "Activation"}, {"measurement": "Predicted Direction of Change: Immune response", "setting": "ASCs from donor 6; [1]", "value": "Activation"}, {"measurement": "Predicted Direction of Change: Migration of cells", "setting": "ASCs from donor 6; [1]", "value": "Activation"}, {"measurement": "Predicted Direction of Change: Migration of endothelium cells", "setting": "ASCs from donor 6; [1]", "value": "Activation"}, {"measurement": "Predicted Direction of Change: Permeability of endothelium cells", "setting": "ASCs from donor 6; [1]", "value": "Activation"}, {"measurement": "Predicted Direction of Change: RNA transactivation", "setting": "ASCs from donor 6; [1]", "value": "Activation"}, {"measurement": "Predicted Direction of Change: Secretion of lipids", "setting": "ASCs from donor 6; [1]", "value": "Activation"}, {"measurement": "Predicted Direction of Change: Synthesis of fatty acids", "setting": "ASCs from donor 6; [1]", "value": "Activation"}, {"measurement": "Predicted Direction of Change: Synthesis of nitric oxide", "setting": "ASCs from donor 6; [1]", "value": "Activation"}, {"measurement": "mean ear hole area", "setting": "C57BL/6 mice; C57BL/6, day 42 post-injury, 2 mm punch, s.c. 5.0 µg/g, 10 injections, mean ± SD, saline control 3.10 ± 0.74", "value": "1.67 ± 0.45", "unit": "mm^2"}, {"measurement": "ear hole closure", "setting": "C57BL/6 mice; C57BL/6, day 42 post-injury, s.c. 5.0 µg/g, 10 injections, mean ± SD, saline control 8.0% ± 36.8%", "value": "43.6% ± 13.9% and 44%"}, {"measurement": "tissue repair in comparison to control", "setting": "C57BL/6 mice; C57BL/6, ear pinna injury, as summarised in the abstract", "value": 36, "unit": "%"}]}
